Source: patent EP3698805A1, “FRACTION OFZANTHOXYLUM PIPERITUM” (Mecox Curemed Co., Ltd., priority 2017, dated 2019)
Where “and” joins values, the source holds several entries; their conditions need not be identical. Identical values can stand only once. Like-named read-outs stand apart in the source and are kept apart here.

Columns and labels:
[1] = test system: acetic acid-induced pain model; test: acetic acid-induced pain model (writhing syndrome test); format: in vivo, ICR mice; conditions: for pain inhibition effect: FIG. 3, compounds isolated from ZPE6A or ZPE6C fraction; for Pain inhibition percentage (%)(50 mg/kg, po): active ingredients
Method: The acetic acid-induced writhing syndrome test is an animal model for determining analgesic effects. It is mainly used to test the effect of analgesics on the peripheral nervous system. The experimental animals used herein were 5-week-old ICR mice purchased from Central Laboratory Animals (Seoul) and acclimated in a breeding room maintained at a humidity of 50% and a temperature of 24 to 26°C for one week. Feed and water were supplied for free intake. […] The test substance was orally administered 60 minutes before the induction of pain to determine the degree of analgesic effect.

[2] = test system: pain response induced by formalin; test: formalin test; format: in vivo, rats; conditions: 100 mg/kg
Method: The formalin test is primarily used to measure the analgesic effects of drugs in chronic pain models, in which the pain stimulus and response are not temporary but persistent. The pain response induced by formalin includes phase 1 and phase 2, and these two phases can be distinguished pharmacologically. The test substance and acetaminophen or aspirin, as a positive control group, were orally administered 60 minutes before the induction of pain, 10% formalin was injected subcutaneously into the hind legs of rats, and the number of actions in response to pain was measured every 3 minutes. The action in response to pain was measured separately in phase 1 (0-12 minutes) and phase 2 (24-39 minutes).

mast cell RBL-2H3 = test: inhibition of mast cell degranulation (β-hexosaminidase secretion); format: cell-based; conditions: for inhibition at 25 µg/mL / inhibition at 100 µg/mL: Rattus norvegicus
Method: Inhibition of inflammation-promoting cytokines has been reported to inhibit autoimmune diseases such as atopy. Thus, in the present embodiment, the mast cell RBL-2H3 was treated with the Zanthoxylum piperitum leaf extract or active compounds (quercitrin, afzelin) to evaluate the secretion inhibition ability of β-hexosaminidase. That is, the effect of inhibiting mast cell degranulation by the Zanthoxylum piperitum leaf extract or the active compound (quercitrin, afzelin) was found.

[3] = test system: collagen-induced arthritis animal model; test: collagen-induced arthritis animal model (clinical score, micro-CT); format: in vivo, DBA/1J mice; set-up: scale not given here
Method: As one of the methods for evaluating the therapeutic effect of rheumatoid arthritis, the antirheumatic efficacy of each test substance was measured in a collagen-induced arthritis animal model. The experimental animals herein used were 5-week-old DBA/1J mice purchased from Central Laboratory Animals (Seoul) and acclimated in a breeding room maintained at a humidity of 50% and a temperature of 24 to 26°C for one week. Feed and water were supplied for free intake. In order to induce arthritis, type 2 collagen and CFA (complete Freund's adjuvant) were mixed to obtain an emulsion. 200 µL of the emulsion was injected subcutaneously […] into the lower part of the tail 2 to 3 cm away from the torso of DBA/1J mice, and the same amount of the emulsion was secondarily injected in […] into the lower part of the tail in the same manner as in the primary injection 21 days after exposure to a primary antigen. A positive control group was orally administered with dexamethasone at a dose of 1 mg/kg from the 22nd day after primary antigen exposure, the group administered with the Zanthoxylum piperitum leaf extract was orally treated at 100 mg/kg for 3 weeks, rheumatoid arthritis lesions were visually observed and graded, and the arthritis alleviation efficacy was measured as a clinical score.

[4] = RBL-2H3, read-out: degranulation inhibitory activity compared to the ketotifen drug
[5] = individual animals No. 1-7, extract 100 mg/kg oral 3 weeks, dexamethasone 1 mg/kg oral, listed as Positive control group

Row | Structure (SMILES) | pain inhibition effect [1] | Effect of inhibiting degranulation (% inhibition) (mast cell RBL-2H3; treatment amount 12.5 µg/mL) | Effect of inhibiting degranulation (% inhibition) (mast cell RBL-2H3; treatment amount 25 µg/mL) | Effect of inhibiting degranulation (% inhibition) (mast cell RBL-2H3; treatment amount 50 µg/mL) | Effect of inhibiting degranulation (% inhibition) (mast cell RBL-2H3; treatment amount 100 µg/mL) | further results
1 | O=C(O)c1ccccc1C(=O)O [1,2-benzenedicarboxylic acid] | excellent pain inhibition effects | – | – | – | – | –
2 | CC(C)(C)c1ccc(O)c(C(C)(C)C)c1 [2,4-di-tert-butylphenol] | excellent pain inhibition effects | – | – | – | – | –
3 | CC(=O)c1ccc(O)cc1 [4'-hydroxyacetophenone] | excellent pain inhibition effects | – | – | – | – | –
4 | CC(=O)Nc1ccc(O)cc1 [Acetaminophen] | – | – | – | – | – | Inhibition (%) Phase 1 ([2]; phase 1 (0-12 minutes)): 35.2%; Inhibition (%) Phase 2 ([2]; phase 2 (24-39 minutes)): 41.7%
5 | C[C@@H]1O[C@@H](Oc2c(-c3ccc(O)cc3)oc3cc(O)cc(O)c3c2=O)[C@H](O)[C@H](O)[C@H]1O [Afzelin, camphorol-3-O-alpha-L-rhamnoside] | – | 25.1 ± 1.68 | 39.4 ± 1.06 | 41.3 ± 1.67 | 40.9 ± 0.98 | Pain inhibition percentage (%)(50 mg/kg, po) [1]: 93.6%; inhibition at 25 µg/mL (mast cell RBL-2H3; RBL-2H3, treatment dose of 25 µg/mL, read-out: degranulation inhibitory activity compared to the ketotifen drug): ~195%; inhibition at 100 µg/mL (mast cell RBL-2H3; RBL-2H3, treatment dose of 100 µg/mL, read-out: degranulation inhibitory activity compared to the ketotifen drug): ~93%
6 | CN1CCC(=C2c3ccccc3CC(=O)c3sccc32)CC1 [Ketotifen] | – | 13.8 ± 0.88 | 20.2 ± 0.84 | 32.8 ± 1.04 | 43.9 ± 1.45 | –
7 | C[C@@H]1O[C@@H](Oc2c(-c3ccc(O)c(O)c3)oc3cc(O)cc(O)c3c2=O)[C@H](O)[C@H](O)[C@H]1O [Quercitrin, quercetin-3-O-alpha-L-rhamnoside] | – | 6.3 ± 0.13 | 14.3 ± 0.11 | 19.8 ± 0.28 | 22.2 ± 0.32 | Pain inhibition percentage (%)(50 mg/kg, po) [1]: 69.2%; inhibition at 25 µg/mL (mast cell RBL-2H3; [4]): ~70%; inhibition at 100 µg/mL (mast cell RBL-2H3; [4]): ~50%
8 | C[C@@H]1C[C@H]2[C@@H]3CCC4=CC(=O)C=C[C@]4(C)[C@@]3(F)[C@@H](O)C[C@]2(C)[C@@]1(O)C(=O)CO [dexamethasone] | – | – | – | – | – | average score ([3]; group mean of total clinical score, control group 11.8): 6.3; visual clinical score Right back leg ([3]; individual animals No. 1-7, extract 100 mg/kg oral 3 weeks, dexamethasone 1 mg/kg oral): 1; visual clinical score Left back leg [3, 5]: 1 (5×) and 2 (2×); visual clinical score Left front leg [3, 5]: 3 (2×) and 2 (3×) and 1 (2×); visual clinical score Right front leg [3, 5]: 3 (2×) and 2 (3×) and 1 (2×); visual clinical score Total [3, 5]: 8 and 7 (2×) and 6 (2×) and 5 (2×)
